Results taken from patent US11731962B2, “LpxC inhibitor and methods of making” (priority 2020, dated 2023).
≈ marks a conversion by molar mass, not a printed value. Where two headings read alike, the source gives them in different places.

Tests used:
Type in all cases: cell-based
[1] = tested on: L. monocytogenes ATCC 7644; assay: Bacterial susceptibility testing, broth microdilution MIC; details: Listeria monocytogenes, ATCC7644, 35° C., 18-24 h
Procedure: (§1) Minimal inhibitory concentrations (MIC) against a variety of gram-negative and gram-positive bacterial strains were determined by the broth microdilution method in accordance with the Clinical and Laboratory Standards Institute (CLSI) guidelines. In brief, organism suspensions were adjusted to a 0.5 McFarland standard to yield a final inoculum between 3×10^5 and 7×10^5 colony-forming units (CFU)/mL. Drug dilutions and inocula were made in sterile, cation adjusted Mueller-Hinton Broth (Beckton Dickinson). An inoculum volume of 100 μL was added to wells containing 100 μL of broth with 2-fold serial dilutions of drug. All inoculated microdilution trays were incubated in ambient air at 35° C. for 18-24 h. Following incubation, the lowest concentration of the drug that prevented visible growth (OD600 nm<0.05) was recorded as the MIC. Performance of the assay was monitored by the use of laboratory quality-control strains and levofloxacin, a compound with a defined MIC spectrum, in accordance with CLSI guidelines.

[2] = tested on: B. thuringiensis ATCC 35646; assay: as above; details: Bacillus thuringiensis, ATCC35646, 35° C., 18-24 h
Procedure: as §1

B. breve HM 412 = assay: as above; details: Bifidobacterium breve, HM412, 35° C., 18-24 h
Procedure: as §1

S. pneumoniae ATCC 49619 = assay: as above; details: Streptococcus pneumoniae, ATCC49619, 35° C., 18-24 h
Procedure: as §1

K. pneumoniae ATCC 13883 = assay: as above; details: Klebsiella pneumoniae, ATCC13883
Procedure: as §1

[3] = tested on: N. cyriacigeorgica complex NBQAS 3295; assay: as above
Procedure: as §1

L. rhamnosus ATCC 53103 = assay: as above; details: Lacticaseibacillus rhamnosus, ATCC53103, 35° C., 18-24 h
Procedure: as §1

S. pyogenes ATCC 12384 = assay: as above; details: Streptococcus pyogenes, ATCC12384, 35° C., 18-24 h
Procedure: as §1

P. acnes ATCC 6919 = assay: as above; details: Cutibacterium acnes, ATCC6919, 35° C., 18-24 h
Procedure: as §1

E. faecalis ATCC 29212 = assay: as above; details: Enterococcus faecalis, ATCC29212, 35° C., 18-24 h
Procedure: as §1

E. coli ATCC 25922 = assay: as above; details: Escherichia coli, ATCC25922
Procedure: as §1

P. anaerobius DSM 20357 = assay: as above; details: Peptostreptococcus anaerobius, DSM20357, 35° C., 18-24 h
Procedure: as §1

[4] = tested on: S. epidermidis ATCC 35984; assay: as above; details: Staphylococcus epidermidis, ATCC35984, 35° C., 18-24 h
Procedure: as §1

C. sordellii ATCC 9714 = assay: as above; details: Paraclostridium sordellii, ATCC9714, 35° C., 18-24 h
Procedure: as §1

S. aureus ATCC 29213 = assay: as above; details: for MIC: Staphylococcus aureus, ATCC29213, S. aureus ATCC 29213, broth microdilution, 35° C., 18-24 h
Procedure: as §1

C. jeikeium NCTC 11914 = assay: as above; details: Corynebacterium jeikeium, NCTC11914, 35° C., 18-24 h
Procedure: as §1

C. difficile ATCC 700057 = assay: as above; details: Clostridioides difficile, ATCC700057, 35° C., 18-24 h
Procedure: as §1

[5] = tested on: gram-negative and gram-positive bacterial strains; assay: Bacterial susceptibility testing, whole panel; details: summary of Table 1
Procedure: as §1

[6] = E. coli ATCC 25922, broth microdilution, 35° C., 18-24 h, read-out: MIC

## N#CC1CN(C[C@@H](Cc2ncnc(O)c2O)c2ccc(C#Cc3ccc(CN4CCOCC4)cc3)cc2)C1 [Compound A, (S)-1-(3-(5,6-dihydroxypyrimidin-4-yl)-2-(4-((4-(morpholinomethyl)phenyl)ethynyl)phenyl)propyl)azetidine-3-carbonitrile]
[1]
  MIC: > 64 µg/mL
[2]
  MIC: > 64 µg/mL
B. breve HM 412
  MIC: > 64 µg/mL
S. pneumoniae ATCC 49619
  MIC: > 64 µg/mL
K. pneumoniae ATCC 13883; K. pneumoniae ATCC 13883, broth microdilution, 35° C., 18-24 h, read-out: MIC
  MIC: 0.5 µg/mL (≈ 0.981 µM)
K. pneumoniae ATCC 13883; K. pneumoniae cell lines, strain not named, read-out: MIC values
  MIC: < 1 µg/mL
[3]
  MIC: > 64 µg/mL
L. rhamnosus ATCC 53103
  MIC: > 64 µg/mL
S. pyogenes ATCC 12384
  MIC: > 64 µg/mL
P. acnes ATCC 6919
  MIC: > 64 µg/mL
E. faecalis ATCC 29212
  MIC: > 64 µg/mL
E. coli ATCC 25922; [6]
  MIC: 0.5 µg/mL (≈ 0.981 µM)
E. coli ATCC 25922; E. coli cell lines, strain not named, read-out: MIC values
  MIC: < 1 µg/mL
P. anaerobius DSM 20357
  MIC: > 64 µg/mL
[4]
  MIC: > 64 µg/mL
C. sordellii ATCC 9714
  MIC: > 64 µg/mL
S. aureus ATCC 29213
  MIC: > 64 µg/mL
S. aureus ATCC 29213; gram-positive bacterial cell lines, such as S. aureus
  inhibition of gram-positive bacterial cell lines: does not inhibit
C. jeikeium NCTC 11914
  MIC: > 64 µg/mL
C. difficile ATCC 700057
  MIC: > 64 µg/mL
[5]
  selectivity for gram-negative bacteria over gram-positive bacteria: high selectivity

## C[C@H]1COc2c(N3CCN(C)CC3)c(F)cc3c(=O)c(C(=O)O)cn1c23 [Levofloxacin]
[1]
  MIC: 1 µg/mL (≈ 2.77 µM)
[2]
  MIC: 0.125 µg/mL (≈ 0.346 µM)
B. breve HM 412
  MIC: 4 µg/mL (≈ 11.1 µM)
S. pneumoniae ATCC 49619
  MIC: 1 µg/mL (≈ 2.77 µM)
[3]
  MIC: 8 µg/mL (≈ 22.1 µM)
L. rhamnosus ATCC 53103
  MIC: 1 µg/mL (≈ 2.77 µM)
S. pyogenes ATCC 12384
  MIC: 0.5 µg/mL (≈ 1.38 µM)
P. acnes ATCC 6919
  MIC: 0.5 µg/mL (≈ 1.38 µM)
E. faecalis ATCC 29212
  MIC: 1 µg/mL (≈ 2.77 µM)
E. coli ATCC 25922; [6]
  MIC: 0.03 µg/mL (≈ 0.083 µM)
P. anaerobius DSM 20357
  MIC: 0.5 µg/mL (≈ 1.38 µM)
[4]
  MIC: 0.125 µg/mL (≈ 0.346 µM)
C. sordellii ATCC 9714
  MIC: 1 µg/mL (≈ 2.77 µM)
S. aureus ATCC 29213
  MIC: 0.25 µg/mL (≈ 0.692 µM)
C. jeikeium NCTC 11914
  MIC: 1 µg/mL (≈ 2.77 µM)
C. difficile ATCC 700057
  MIC: 4 µg/mL (≈ 11.1 µM)

## C[C@@H](O)[C@H]1C(=O)N2C(C(=O)O)=C(S[C@@H]3CN[C@H](C(=O)N(C)C)C3)[C@H](C)[C@H]12 [Meropenem]
[2]
  MIC: 0.06 µg/mL (≈ 0.156 µM)
B. breve HM 412
  MIC: > 1 µg/mL
S. pneumoniae ATCC 49619
  MIC: 0.06 µg/mL (≈ 0.156 µM)
[3]
  MIC: > 1 µg/mL
L. rhamnosus ATCC 53103
  MIC: > 1 µg/mL
S. pyogenes ATCC 12384
  MIC: 0.008 µg/mL (≈ 0.0209 µM)
P. acnes ATCC 6919
  MIC: 0.06 µg/mL (≈ 0.156 µM)
E. faecalis ATCC 29212
  MIC: > 1 µg/mL
E. coli ATCC 25922; [6]
  MIC: 0.03 µg/mL (≈ 0.0782 µM)
P. anaerobius DSM 20357
  MIC: > 1 µg/mL
[4]
  MIC: > 1 µg/mL
C. sordellii ATCC 9714
  MIC: 0.015 µg/mL (≈ 0.0391 µM)
C. jeikeium NCTC 11914
  MIC: > 1 µg/mL
C. difficile ATCC 700057
  MIC: 1 µg/mL (≈ 2.61 µM)
[5]
  activity against gram-positive bacteria: do have activity against various strains of gram-positive bacteria
